Assay results taken from patent EP4488270A1, “TRIAZOLE COMPOUNDS FOR THE CONTROL OF INVERTEBRATE PESTS” (priority 2023, dated 2025).

Tests used:
Assay type in all cases: in vivo
[1] = tested on: Southern armyworm (Spodoptera eridania), 2nd instar larvae; assay: Southern armyworm foliar spray test on lima bean plants; details: 96 h, 4 days after treatment, read-out: mortality in comparison with untreated controls
Method: B.4. Southern armyworm (Spodoptera eridania), 2nd instar larvae
The active compounds were formulated by a Tecan liquid handler in 100% cyclohexanone as a 10,000-ppm solution supplied in tubes. The 10,000-ppm solution was serially diluted in 100% cyclohexanone to make interim solutions. These served as stock solutions for which final dilutions were made by the Tecan in 50% acetone:50% water (v/v) into 10 or 20ml glass vials. A non-ionic surfactant (Kinetic®) was included in the solution at a volume of 0.01% (v/v). The vials were then inserted into an automated electrostatic sprayer equipped with an atomizing nozzle for application to plants/insects. Lima bean plants (variety Sieva) were grown 2 plants to a pot and selected for treatment at the 1st true leaf stage. Test solutions were sprayed onto the foliage by an automated electrostatic plant sprayer equipped with an atomizing spray nozzle. The plants were dried in the sprayer fume hood and then removed from the sprayer. Each pot was placed into perforated plastic bags with a zip closure. Ten to 11 armyworm larvae were placed into the bag and the bags zipped closed. […] Mortality and reduced feeding were assessed 4 days after treatment, compared to untreated control plants.

[2] = tested on: tobacco budworm (Heliothis virescens); assay: Tobacco budworm test, insect diet with eggs in 96-well microtiter plates; details: 120 h, egg and larval mortality, 5 days, about 28 ± 1°C, read-out: mortality in comparison with untreated controls
Method: B.2 Tobacco budworm (Heliothis virescens)
For evaluating control of tobacco budworm (Heliothis virescens), the test unit consisted of 96-well-microtiter plates containing an insect diet and 15-25 H. virescens eggs.
The compounds were formulated using a solution containing 75% v/v water and 25% v/v DMSO. Different concentrations of formulated compounds were sprayed onto the insect diet at 10µl, using a custom-built micro atomizer, at two replications.
After application, microtiter plates were incubated at about 28 ± 1°C and about 80 ± 5 % relative humidity for 5 days. Egg and larval mortality was then visually assessed.

[3] = tested on: yellow fever mosquito (Aedes aegypti); assay: whole plant or invertebrate; details: 48 h, larval mortality, 2 days, 28 ± 1°C, read-out: mortality in comparison with untreated controls
Method: B.5 Yellow fever mosquito (Aedes aegypti)
For evaluating control of yellow fever mosquito (Aedes aegypti) the test unit consisted of 96-well-microtiter plates containing 200µl of tap water per well and 5-15 freshly hatched A. aegypti larvae.
The active compounds were formulated using a solution containing 75% (v/v) water and 25% (v/v) DMSO. Different concentrations of formulated compounds or mixtures were sprayed onto the insect diet at 2.5µl, using a custom-built micro atomizer, at two replications.
After application, microtiter plates were incubated at 28 ± 1°C, 80 ± 5 % RH for 2 days. Larval mortality was then visually assessed.

[4] = tested on: green peach aphid (Myzus persicae); assay: Green peach aphid systemic test, artificial diet under membrane in 96-well microtiter plates; details: 72 h, adult aphids on treated diet, 3 days, about 23 ± 1°C, read-out: mortality in comparison with untreated controls
Description: B.1 Green Peach Aphid (Myzus persicae)
For evaluating control of green peach aphid (Myzus persicae) through systemic means, the test unit consisted of 96-well-microtiter plates containing liquid artificial diet under an artificial mem brane.
The compounds were formulated using a solution containing 75% v/v water and 25% v/v DMSO. Different concentrations of formulated compounds were pipetted into the aphid diet, using a custom built pipetter, at two replications.
After application, 5 - 8 adult aphids were placed on the artificial membrane inside the microtiter plate wells. The aphids were then allowed to suck on the treated aphid diet and incubated at about 23 ± 1°C and about 50 ± 5 % relative humidity for 3 days. Aphid mortality and fecundity was then visually assessed.

[5] = tested on: boll weevil (Anthonomus grandis); assay: Boll weevil test, insect diet with eggs in 96-well microtiter plates; details: 120 h, read-out: mortality in comparison with untreated controls
Method: B.3 Boll weevil (Anthonomus grandis)
For evaluating control of boll weevil (Anthonomus grandis), the test unit consisted of 96-well-microtiter plates containing an insect diet and 5-10 A. grandis eggs.
The compounds were formulated using a solution containing 75% v/v water and 25% v/v DMSO. Different concentrations of formulated compounds were sprayed onto the insect diet at 5µl, using a custom-built micro atomizer, at two replications.
After application, microtiter plates were incubated at about 25 ± 1°C and about 75 ± 5 % relative humidity for 5 days. Egg and larval mortality was then visually assessed.

[6] = tested on: Orchid thrips (Dichromothrips corbetti); assay: Orchid thrips floral-immersion test; details: adult thrips on dipped orchid petals, 72 hours after treatment, read-out: mortality in comparison with untreated controls
Method: B.6 Orchid thrips (Dichromothrips corbetti)
Dichromothrips corbetti adults used for bioassay are obtained from a colony maintained continuously under laboratory conditions. For testing purposes, the test compound is diluted in a 1:1 mixture of acetone:water (vol:vol), plus Kinetic at a rate of 0.01% v/v.
Thrips potency of each compound is evaluated by using a floral-immersion technique. Each orchid petal is dipped into treatment solution and allowed to dry in Petri dishes. Treated petals are placed into individual re-sealable plastic along with about 20 adult thrips. All test arenas are held under dark condition and a temperature of about 28°C for duration of the assay. The percent mortality is recorded 72 hours after treatment.

CC(NC(=O)c1cc(C(F)(F)F)cc(C(F)(F)F)c1)c1nccnc1-c1ncn(C2(C(N)=O)CC2)n1 (stereo not drawn) [I-2, N-[1-[3-[1-(1-carbamoylcyclopropyl)-1,2,4-triazol-3-yl]pyrazin-2-yl]ethyl]-3,5-bis(trifluoromethyl)benzamide]
≥ 75%: mortality at 300 ppm [1] | mortality at 2500 ppm [2] | mortality at 2500 ppm [3] | mortality at 2500 ppm [4] | mortality at 2500 ppm [5] | mortality at 300 ppm [6]

CC(NC(=O)c1cc(C(F)(F)F)cc(C(F)(F)F)c1)c1nccnc1-c1ncn(C2(C#N)CC2)n1 (stereo not drawn) [I-3, N-[1-[3-[1-(1-cyanocyclopropyl)-1,2,4-triazol-3-yl]pyrazin-2-yl]ethyl]-3,5-bis(trifluoromethyl)benzamide]
≥ 75%: mortality at 300 ppm [1] | mortality at 2500 ppm [2] | mortality at 2500 ppm [3] | mortality at 2500 ppm [4] | mortality at 2500 ppm [5] | mortality at 300 ppm [6]
